Measurements taken from PubChem BioAssay AID1963960 (Molecular Pharmacology Branch, DTP, NCI, 2024).

Test system: MDA-MB-468 spheroids with HUVEC/MSC, viability
Assay: Anticancer human tumor MDA-MB-468 cell line growth inhibition [PI3K];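 also: spheroids exposed to agents for seven days before readout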;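 as to viability, T/C: 100% = DMSO vehicle control viability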
Details: for viability, T/C: stronger effect = lower value
How it was run: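 Complex 3D spheroids (cancer cells + endothelial HUVEC + mesenchymal stem cells); drug pairs of targeted agent x inavolisib/alpelisib/duvelisib/copanlisib; half-log series from ~Cmax, max 10 microM if Cmax unknown; endpoint viability.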

[1] = curve of first compound, second compound 0.0316 µM
[2] = curve of first compound, second compound 0.1 µM
[3] = curve of first compound, second compound 0.316 µM
[4] = curve of first compound, second compound 1 µM
[5] = curve of first compound, second compound 3.16 µM
[6] = curve of first compound, second compound 10 µM
[7] = second compound 0.0316 µM, first compound 0.0316 µM
[8] = second compound 0.0316 µM, first compound 0.1 µM
[9] = second compound 0.0316 µM, first compound 0.316 µM
[10] = second compound 0.0316 µM, first compound 1 µM
[11] = second compound 0.0316 µM, first compound 3.16 µM
[12] = second compound 0.0316 µM, first compound 10 µM
[13] = second compound 0.1 µM, first compound 0.0316 µM
[14] = second compound 0.1 µM, first compound 0.1 µM
[15] = second compound 0.1 µM, first compound 0.316 µM
[16] = second compound 0.1 µM, first compound 1 µM
[17] = second compound 0.1 µM, first compound 3.16 µM
[18] = second compound 0.1 µM, first compound 10 µM
[19] = second compound 0.316 µM, first compound 0.0316 µM
[20] = second compound 0.316 µM, first compound 0.1 µM
[21] = second compound 0.316 µM, first compound 0.316 µM
[22] = second compound 0.316 µM, first compound 1 µM
[23] = second compound 0.316 µM, first compound 3.16 µM
[24] = second compound 0.316 µM, first compound 10 µM
[25] = second compound 1 µM, first compound 0.0316 µM
[26] = second compound 1 µM, first compound 0.1 µM
[27] = second compound 1 µM, first compound 0.316 µM
[28] = second compound 1 µM, first compound 1 µM
[29] = second compound 1 µM, first compound 3.16 µM
[30] = second compound 1 µM, first compound 10 µM
[31] = second compound 3.16 µM, first compound 0.0316 µM
[32] = second compound 3.16 µM, first compound 0.1 µM
[33] = second compound 3.16 µM, first compound 0.316 µM
[34] = second compound 3.16 µM, first compound 1 µM
[35] = second compound 10 µM, first compound 0.0316 µM
[36] = second compound 10 µM, first compound 0.1 µM
[37] = second compound 10 µM, first compound 0.316 µM
[38] = second compound 10 µM, first compound 1 µM
[39] = curve of first compound, second compound 0.00316 µM
[40] = curve of first compound, second compound 0.01 µM
[41] = second compound 0.00316 µM, first compound 0.0316 µM
[42] = second compound 0.00316 µM, first compound 0.1 µM
[43] = second compound 0.01 µM, first compound 0.0316 µM
[44] = second compound 0.01 µM, first compound 0.1 µM
[45] = second compound 0.0316 µM, first compound 0.00316 µM
[46] = second compound 0.0316 µM, first compound 0.01 µM
[47] = second compound 0.1 µM, first compound 0.00316 µM
[48] = second compound 0.1 µM, first compound 0.01 µM
[49] = second compound 0.316 µM, first compound 0.00316 µM
[50] = second compound 0.316 µM, first compound 0.01 µM
[51] = second compound 1 µM, first compound 0.00316 µM
[52] = second compound 1 µM, first compound 0.01 µM

SMILES: COc1c(OCCCN2CCOCC2)ccc2c3n(c(=NC(=O)c4cnc(N)nc4)nc12)CCN3
- viability, T/C (compound 0.00316 µM): 99.8% [middle of 8 runs]
- viability, T/C (compound 0.01 µM): 90.4% [middle of 8 runs]
- viability, T/C (compound 0.0316 µM): 76.7% [middle of 8 runs]
- viability, T/C (compound 0.1 µM): 57.7% [middle of 8 runs]
- viability, T/C (compound 0.316 µM): 23.9% [middle of 8 runs]
- viability, T/C (compound 1 µM): 3.27% [middle of 8 runs]
- IC50 (compound alone, run of 05/09/2023): 122 nM [middle of 7 runs]

SMILES: CC(Cn1ccc(-c2ccc(C#N)c(Cl)c2)n1)NC(=O)c1cc(C(C)O)[nH]n1 (stereo not given) + Cc1nc(NC(=O)N2CCCC2C(N)=O)sc1-c1ccnc(C(C)(C)C(F)(F)F)c1
- IC50 [1]: > 10000 nM
- IC50 [2]: > 10000 nM
- IC50 [3]: > 10000 nM
- IC50 [4]: > 10000 nM
- IC50 [5]: > 10000 nM
- IC50 [6]: < 31.6 nM
- viability, T/C [7]: 82.4%
- viability, T/C [8]: 93%
- viability, T/C [9]: 88.3%
- viability, T/C [10]: 111%
- viability, T/C [11]: 72%
- viability, T/C [12]: 50.6%
- viability, T/C [13]: 89.4%
- viability, T/C [14]: 93.9%
- viability, T/C [15]: 79.9%
- viability, T/C [16]: 99%
- viability, T/C [17]: 64.6%
- viability, T/C [18]: 55.7%
- viability, T/C [19]: 88%
- viability, T/C [20]: 86.5%
- viability, T/C [21]: 80.6%
- viability, T/C [22]: 92.2%
- viability, T/C [23]: 61.5%
- viability, T/C [24]: 54%
- viability, T/C [25]: 86.3%
- viability, T/C [26]: 71.1%
- viability, T/C [27]: 64.1%
- viability, T/C [28]: 70.4%
- viability, T/C [29]: 61.2%
- viability, T/C [30]: 50.5%
- viability, T/C [31]: 74.4%
- viability, T/C [32]: 54.2%
- viability, T/C [33]: 64.4%
- viability, T/C [34]: 61.3%
- viability, T/C (second compound 3.16 µM, first compound 3.16 µM): 53.4%
- viability, T/C (second compound 3.16 µM, first compound 10 µM): 49.2%
- viability, T/C [35]: 33.4%
- viability, T/C [36]: 28.8%
- viability, T/C [37]: 28.4%
- viability, T/C [38]: 29.9%
- viability, T/C (second compound 10 µM, first compound 3.16 µM): 28.3%
- viability, T/C (second compound 10 µM, first compound 10 µM): 21.5%

SMILES: Cn1ncc(Cl)c1-c1cc(C(=O)NC(CN)Cc2cccc(F)c2)sc1Cl (stereo not given) + CC(Nc1ccc2c(c1)OCCn1cc(N3C(=O)OCC3C(F)F)nc1-2)C(N)=O
- IC50 [39]: 306 nM
- IC50 [40]: 359 nM
- IC50 [1]: 284 nM
- IC50 [2]: 229 nM
- IC50 [3]: 157 nM
- IC50 [4]: 133 nM
- viability, T/C [41]: 89.7%
- viability, T/C [42]: 72.2%
- viability, T/C (second compound 0.00316 µM, first compound 0.316 µM): 42.9%
- viability, T/C (second compound 0.00316 µM, first compound 1 µM): 35.6%
- viability, T/C (second compound 0.00316 µM, first compound 3.16 µM): 22%
- viability, T/C (second compound 0.00316 µM, first compound 10 µM): 7.53%
- viability, T/C [43]: 83.7%
- viability, T/C [44]: 74.4%
- viability, T/C (second compound 0.01 µM, first compound 0.316 µM): 44.8%
- viability, T/C (second compound 0.01 µM, first compound 1 µM): 36.4%
- viability, T/C (second compound 0.01 µM, first compound 3.16 µM): 25.6%
- viability, T/C (second compound 0.01 µM, first compound 10 µM): 5.85%
- viability, T/C [7]: 91.2%
- viability, T/C [8]: 71.8%
- viability, T/C [9]: 39.9%
- viability, T/C [10]: 33.7%
- viability, T/C [11]: 22.1%
- viability, T/C [12]: 3.85%
- viability, T/C [13]: 78.7%
- viability, T/C [14]: 63.6%
- viability, T/C [15]: 39.8%
- viability, T/C [16]: 33.6%
- viability, T/C [17]: 20.8%
- viability, T/C [18]: 4.34%
- viability, T/C [19]: 75.8%
- viability, T/C [20]: 59.6%
- viability, T/C [21]: 33.8%
- viability, T/C [22]: 27.5%
- viability, T/C [23]: 19.2%
- viability, T/C [24]: 4.28%
- viability, T/C [25]: 76.2%
- viability, T/C [26]: 53%
- viability, T/C [27]: 37.2%
- viability, T/C [28]: 21.8%
- viability, T/C [29]: 18.9%
- viability, T/C [30]: 3.04%

SMILES: CC(=O)c1c(C)c2cnc(Nc3ccc(N4CCNCC4)cn3)nc2n(C2CCCC2)c1=O + CC(Nc1ccc2c(c1)OCCn1cc(N3C(=O)OCC3C(F)F)nc1-2)C(N)=O
- IC50 [39]: > 100 nM
- IC50 [40]: > 100 nM
- IC50 [1]: > 100 nM
- IC50 [2]: > 100 nM
- IC50 [3]: > 100 nM
- IC50 [4]: > 100 nM
- viability, T/C (second compound 0.00316 µM, first compound 0.000316 µM): 96.1%
- viability, T/C (second compound 0.00316 µM, first compound 0.001 µM): 95.3%
- viability, T/C (second compound 0.00316 µM, first compound 0.00316 µM): 96.8%
- viability, T/C (second compound 0.00316 µM, first compound 0.01 µM): 102%
- viability, T/C [41]: 97.4%
- viability, T/C [42]: 89.9%
- viability, T/C (second compound 0.01 µM, first compound 0.000316 µM): 105%
- viability, T/C (second compound 0.01 µM, first compound 0.001 µM): 91%
- viability, T/C (second compound 0.01 µM, first compound 0.00316 µM): 93.6%
- viability, T/C (second compound 0.01 µM, first compound 0.01 µM): 110%
- viability, T/C [43]: 105%
- viability, T/C [44]: 97.1%
- viability, T/C (second compound 0.0316 µM, first compound 0.000316 µM): 103%
- viability, T/C (second compound 0.0316 µM, first compound 0.001 µM): 92.7%
- viability, T/C [45]: 89%
- viability, T/C [46]: 89%
- viability, T/C [7]: 97%
- viability, T/C [8]: 79.3%
- viability, T/C (second compound 0.1 µM, first compound 0.000316 µM): 86.5%
- viability, T/C (second compound 0.1 µM, first compound 0.001 µM): 84.8%
- viability, T/C [47]: 101%
- viability, T/C [48]: 88.4%
- viability, T/C [13]: 96%
- viability, T/C [14]: 89.2%
- viability, T/C (second compound 0.316 µM, first compound 0.000316 µM): 89.5%
- viability, T/C (second compound 0.316 µM, first compound 0.001 µM): 72.1%
- viability, T/C [49]: 79.1%
- viability, T/C [50]: 87.5%
- viability, T/C [19]: 83.8%
- viability, T/C [20]: 84.1%
- viability, T/C (second compound 1 µM, first compound 0.000316 µM): 84.1%
- viability, T/C (second compound 1 µM, first compound 0.001 µM): 81.6%
- viability, T/C [51]: 73%
- viability, T/C [52]: 90.6%
- viability, T/C [25]: 66.7%
- viability, T/C [26]: 82%

SMILES: CCN1CCN(Cc2ccc(Nc3ncc(F)c(-c4cc(F)c5nc(C)n(C(C)C)c5c4)n3)nc2)CC1 + CC(Nc1ncnc2nc[nH]c12)c1cc2cccc(Cl)c2c(=O)n1-c1ccccc1
- IC50 [1]: > 1000 nM
- IC50 [2]: > 1000 nM
- IC50 [3]: > 1000 nM
- IC50 [4]: > 1000 nM
- IC50 [5]: > 1000 nM
- IC50 [6]: < 3.16 nM
- viability, T/C [45]: 98.7%
- viability, T/C [46]: 89.8%
- viability, T/C [7]: 88.1%
- viability, T/C [8]: 88.1%
- viability, T/C [9]: 85.3%
- viability, T/C [10]: 67.9%
- viability, T/C [47]: 85.3%
- viability, T/C [48]: 92.7%
- viability, T/C [13]: 94.1%
- viability, T/C [14]: 93.7%
- viability, T/C [15]: 79.3%
- viability, T/C [16]: 60.1%
- viability, T/C [49]: 78.3%
- viability, T/C [50]: 81.1%
- viability, T/C [19]: 82.3%
- viability, T/C [20]: 65.5%
- viability, T/C [21]: 81%
- viability, T/C [22]: 56.6%
- viability, T/C [51]: 58.2%
- viability, T/C [52]: 70%
- viability, T/C [25]: 69.5%
- viability, T/C [26]: 61.7%
- viability, T/C [27]: 56.9%
- viability, T/C [28]: 51.5%
- viability, T/C (second compound 3.16 µM, first compound 0.00316 µM): 60.9%
- viability, T/C (second compound 3.16 µM, first compound 0.01 µM): 57.4%
- viability, T/C [31]: 57.9%
- viability, T/C [32]: 53.7%
- viability, T/C [33]: 55.1%
- viability, T/C [34]: 48.1%
- viability, T/C (second compound 10 µM, first compound 0.00316 µM): 40.9%
- viability, T/C (second compound 10 µM, first compound 0.01 µM): 42.4%
- viability, T/C [35]: 41%
- viability, T/C [36]: 40%
- viability, T/C [37]: 37.8%
- viability, T/C [38]: 31.8%
